Where a name gives a salt, the structure may show the parent alone. Read-outs that look alike come from different tables or passages of the source.
What was measured:
[1] = test system: HOX-med/low AML patient cells; assay: Primary chemical screen of 60 compounds, cell dose-response viability assay (CellTiterGlo, 6 days); format: cell-based, human; conditions: read-out: MEAN EC50 HOX-med/low
Description: (§1) frozen AML mono-nucleated cells were thawed at 37° C. in Iscove's modified Dulbecco's medium (IMDM) containing 20% FBS and DNase I (100 μg/mL).
(§2) All powders were dissolved in DMSO and diluted in culture medium immediately before use. Final DMSO concentration in all conditions was 0.1%. The 60 compounds were purchased from various suppliers including Santa Cruz, Selleckchem, Calbiochem, AdooQ Bioscience, Cayman chemical and Synkinase.
(§3) Patient cells were seeded in 384-well plates at a density of 5,000 cells in 50 μL per well. In the initial screen, compounds were added to seeded cells in serial dilutions (10 dilutions, 1:3, starting from 10 μM or 20 μM), in duplicates. Cells treated with 0.1% DMSO without additional compound were used as negative controls. Viable cell counts per well were evaluated after 6 days of culture using the CellTiterGlo® assay (Promega®) according to the manufacturer's instruction.
(§4) Using high expression of HOXA9 and HOXA10 as a surrogate for the detection of HOX-network-high patient samples, the survival of HOX-high versus HOX-med/low specimens contacted with 60 inhibitors targeting receptor tyrosine kinases (RTK), members of the RAS and PI3K pathways, was assessed (FIG. 2A, Table 4).

[2] = test system: HOX-high AML patient cells; assay: as above; format: cell-based, human; conditions: for EC50: read-out: MEAN EC50 HOX-high
Description: as §1, §2, §3, §4

[3] = Homo sapiens, 144 h, primary screen, mean over HOX-med/low patient specimens, 6 days culture, top concentration 10 μM or 20 μM
[4] = Homo sapiens, 144 h, primary screen, mean over HOX-high patient specimens, 6 days culture, top concentration 10 μM or 20 μM
[5] = ratio of mean EC50 HOX-high to mean EC50 HOX-med/low
[6] = primary screen, mean over HOX-med/low patient specimens, 6 days culture, top concentration 10 μM or 20 μM
[7] = primary screen, mean over HOX-high patient specimens, 6 days culture, top concentration 10 μM or 20 μM

Compound | EC50 [1, 3] [µM] | EC50 [2, 4] [µM] | FOLD CHANGE High/Med-low [2, 5] | EC50 [1, 6] [µM] | also measured
CC(C)(C)c1cc(NC(=O)Nc2ccc(-c3cn4c(n3)sc3cc(OCCN5CCOCC5)ccc34)cc2)no1 [Quizartinib] | 0.52 | 0.23 | 0.4 | – | –
Cc1ccc(Nc2c(C(N)=O)cnc3cc(-c4ccc(S(C)(=O)=O)cc4)ccc23)cc1C [cFMS Receptor Inhibitor III] | – | – | 1.1 | 7.97 | EC50 [2, 7]: 8.86 µM
C#Cc1cccc(Nc2ncnc3cc(OCCOC)c(OCCOC)cc23)c1 [Erlotinib] | 9.14 | 8.66 | 0.9 | – | –
O=C(NOCC1CC1)c1ccc(F)c(F)c1Nc1ccc(I)cc1Cl [CI1040 PD.184352.] | 2.77 | 2.44 | 0.9 | – | –
Cc1cn(-c2cc(NC(=O)c3ccc(C)c(Nc4nccc(-c5cccnc5)n4)c3)cc(C(F)(F)F)c2)cn1 [Nilotinib] | 3.81 | 3.92 | 1.0 | – | –
CC[C@H](Nc1ncnc2[nH]cnc12)c1nc2cccc(F)c2c(=O)n1-c1ccccc1 [GS1101 idelalisib CAL101, idelalisib] | 5.67 | 7.47 | 1.3 | – | –
Cc1nc(Nc2ncc(C(=O)Nc3c(C)cccc3Cl)s2)cc(N2CCN(CCO)CC2)n1 [Dasatinib] | 0.322 | 0.774 | 2.4 | – | –
O=c1cc(N2CCNCC2)oc2c(-c3ccccc3)cccc12 [LY303511] | > 10 | > 10 | – | – | –
Cc1ccc(C(=O)Nc2cccc(C(F)(F)F)c2)cc1Nc1nc(-c2cccnc2)nc2c1cnn2C [NVPBHG712] | – | – | 0.9 | 5.21 | EC50 [2, 7]: 4.44 µM
COc1cccc(-c2cc(=O)c3ccccc3o2)c1N [PD98059] | – | – | 1.0 | > 10 | –
Cc1[nH]c(/C=C2\C(=O)Nc3cc(-c4ccccc4)ccc32)c(C)c1CCC(=O)O [PDGFR Tyrosine Kinase Inhibitor VII] | – | – | 2.1 | 2.84 | EC50 [2, 7]: 6 µM
COc1cccc2cc(-c3nc([C@H]4CC[C@H](C(=O)O)CC4)n4ncnc(N)c34)[nH]c12 [OSI027, (1r,4r)-4-(4-amino-5-(7-methoxy-1H-indol-2-yl)imidazo[1,5-f][1,2,4]triazin-7-yl)cyclohexanecarboxylic acid] | 0.666 | 2.03 | 3.1 | – | –
c1cc(CN2CCCNCCNCCCNCC2)ccc1CN1CCCNCCNCCCNCC1 [AMD3100] | > 10 | 9.59 | 1.0 | – | –
Nc1nc(Nc2ccc3c(c2)CCC(N2CCCC2)CC3)nn1-c1cc2c(nn1)-c1ccccc1CCC2 (stereo not shown) [R428] | – | – | 0.8 | 0.592 | EC50 [2, 7]: 0.487 µM
Cn1cncc1[C@@](N)(c1ccc(Cl)cc1)c1ccc2c(c1)c(-c1cccc(Cl)c1)cc(=O)n2C [Tipifarnib] | 0.158 | 0.109 | 0.7 | – | –
Nc1ncnc2c1c(-c1cccc(OCc3ccccc3)c1)cn2C1CC(CN2CCC2)C1 (stereo not shown) [NVPAEW541] | – | – | 1.0 | 1.77 | EC50 [2, 7]: 1.73 µM
CO[C@H]1C[C@@H]2CC[C@@H](C)[C@@](O)(O2)C(=O)C(=O)N2CCCC[C@H]2C(=O)O[C@H]([C@H](C)C[C@@H]2CC[C@@H](O)[C@H](OC)C2)CC(=O)[C@H](C)/C=C(\C)[C@@H](O)[C@@H](OC)C(=O)[C@H](C)C[C@H](C)/C=C/C=C/C=C/1C [Rapamycin] | 0.951 | 1.89 | 2.0 | – | –
CS(=O)(=O)N1CCN(Cc2cc3nc(-c4cccc5[nH]ncc45)nc(N4CCOCC4)c3s2)CC1 [GDC0941] | 0.603 | 1.11 | 1.8 | – | –
Cc1ccc(NC(=O)c2cccc(N(C)C)c2)cc1NC(=O)c1ccc(O)cc1 [ZM336372] | – | – | 1.1 | 8.88 | EC50 [2, 7]: > 10 µM
COc1ccc2cc(-c3nc(-c4ccc([S+](C)[O-])cc4)[nH]c3-c3ccncc3)ccc2c1 (stereo not shown) [Tie2 Kinase Inhibitor] | – | – | 1.0 | > 10 | EC50 [2, 7]: > 10 µM
Cn1cnc2c(F)c(Nc3ccc(Br)cc3Cl)c(C(=O)NOCCO)cc21 [Selumetinib AZD6244., Selumetinib] | 1.38 | 1.24 | 0.9 | – | –
N#CC(=C(/N)Sc1ccccc1N)/C(C#N)=C(\N)Sc1ccccc1N [U0126] | – | – | – | – | EC50 ([1]; Homo sapiens, 144 h): 4.11 µM; FOLD CHANGE High/Med-low [2]: 1.1; EC50 ([2]; Homo sapiens, 144 h): 4.48 µM

Compound | EC50 [1, 3] [µM] | EC50 [2, 4] [µM] | FOLD CHANGE High/Med-low [2, 5] | EC50 [1, 6] [µM] | also measured
COc1ccc(Cl)c(Nc2nc3ccccc3nc2NS(=O)(=O)c2cccc(NC(=O)C(C)(C)N)c2)c1 [SAR245408 XL147] | > 10 | > 10 | – | – | –
CCN(CC)CCCCNc1ncc2cc(-c3cc(OC)cc(OC)c3)c(NC(=O)NC(C)(C)C)nc2n1 [PD173074] | – | – | 1.0 | 5.2 | EC50 [2, 7]: 4.95 µM
COc1cc2nccc(Oc3ccc(NC(=O)Nc4ccc(F)cc4F)c(F)c3)c2cc1OC [Ki8751] | – | – | 1.1 | 0.768 | EC50 [2, 7]: 0.844 µM
Cc1nc(NC(=O)N2CCC[C@H]2C(N)=O)sc1-c1ccnc(C(C)(C)C(F)(F)F)c1 [BYL719] | 4.75 | 7.52 | 1.6 | – | –
C[S+]([O-])c1ccc(-c2nc(-c3ccc(F)cc3)c(-c3ccncc3)[nH]2)cc1 (stereo not shown) [SB.203580] | – | – | – | – | EC50 [1]: > 10 µM; FOLD CHANGE High/Med-low [2]: 1.0; EC50 [2]: > 10 µM
NC1(c2ccc(-c3nc4ccn5c(=O)[nH]nc5c4cc3-c3ccccc3)cc2)CCC1 [MK2206] | 1.04 | 2.28 | 2.2 | – | –
Nc1cccc2c1CN(C1CCC(=O)NC1=O)C2=O (stereo not shown) [Lenalidomide] | 9.91 | 7.31 | 0.7 | – | –
N#Cc1ccc(C(=O)Nc2cc(N3CCCCC3)ccc2N2CCCCC2)o1 [cFMS Receptor Inhibitor IV] | – | – | 1.0 | 9.57 | EC50 [2, 7]: > 10 µM
Cn1cc(C2=C(c3cn(C4CCN(Cc5ccccn5)CC4)c4ccccc34)C(=O)NC2=O)c2ccccc21 [Enzastaurin] | > 10 | 9.84 | 1.0 | – | –
CC(=O)Nc1cccc(-n2c(=O)n(C3CC3)c(=O)c3c(Nc4ccc(I)cc4F)n(C)c(=O)c(C)c32)c1 [Trametinib GSK1120212, Trametinib] | 0.018 | 0.0253 | 1.4 | – | –
CNC(=O)c1cc(Oc2ccc(NC(=O)Nc3ccc(Cl)c(C(F)(F)F)c3)cc2)ccn1 [Sorafenib Tosylate] | 0.936 | 1.1 | – | – | FOLD CHANGE High/Med-low [2]: 1.2
NC(=O)c1ccc(N(C(N)=O)c2c(F)cccc2F)nc1-c1ccc(F)cc1F [VX702] | > 10 | 9.55 | 1.0 | – | –
CNC(=O)c1cccc(-c2ccc3c(N4CCOC[C@@H]4C)nc(N4CCOC[C@@H]4C)nc3n2)c1 [AZD2014, 3-(2,4-bis((S)-3-methylmorpholino)pyrido[2,3-d]pyrimidin-7-yl)-N-methylbenzamide] | 0.217 | 0.782 | 3.6 | – | –
CN(C)CCOc1ccc(-c2nc(-c3ccncc3)c(-c3ccc4c(c3)CC/C4=N\O)[nH]2)cc1 [SB590885] | 3.88 | 5.88 | 1.5 | – | –
CNc1cc2c(Nc3cccc(Br)c3)ncnc2cn1 [PD158780] | – | – | 1.0 | 7.71 | EC50 [2, 7]: 7.47 µM
COc1cc2nccc(Oc3ccc(NC(=O)NC4CC4)c(Cl)c3)c2cc1C(N)=O [E7080 Lenvatinib., Lenvatinib] | 3.34 | 7.29 | 2.2 | – | –
C[C@]1(O)C[C@@H](c2nc(-c3ccc4ccc(-c5ccccc5)nc4c3)c3c(N)nccn32)C1 [OS1906 Linsitinib., Linsitinib] | 3.94 | 4.25 | 1.1 | – | –
Cc1nc2cc3nc(-c4cccs4)cnc3cc2n1C [AGL2043] | – | – | 1.1 | 8.38 | EC50 [2, 7]: 8.88 µM
NC(=O)N1CCC(CC(=O)N2CCC([C@H]3c4ncc(Br)cc4CCc4cc(Cl)cc(Br)c43)CC2)CC1 [Lonafarnib] | 3.67 | 2.49 | 0.7 | – | –
CN1CCC(c2[nH]nc(-c3ccc(Cl)cc3)c2-c2ccncn2)CC1 [p38 MAP Kinase Inhibitor V] | – | – | 0.8 | 8.79 | EC50 [2, 7]: 7.31 µM
COc1cc2ncnc(Nc3ccc(F)c(Cl)c3)c2cc1OCCCN1CCOCC1 [Gefitinib] | – | – | 0.9 | – | –
Cc1ccc(NC(=O)c2ccc(CN3CCN(C)CC3)cc2)cc1Nc1nc(-c2cccnc2)cs1 [Masitinib] | 4.57 | 7.01 | 1.5 | – | –
